Experimental data taken from ChEMBL document CHEMBL5143627, “Design, synthesis, and biological evaluation of polyphenol derivatives as DYRK1A inhibitors. The discovery of a potentially promising treatment for Multiple Sclerosis” (Bioorg Med Chem Lett, 2022).
The source made the active and inactive calls. No cut-off for these calls is given here.

Tests used:
[1] = biological target: Dual specificity tyrosine-phosphorylation-regulated kinase 1A (Homo sapiens, UniProt Q13627); experiment: Inhibition of DYRK1A (unknown origin) using HT-497 as substrate preincubated with compound followed by substrate addition and measured after 30 mins in the presence of ATP by ELISA analysis
[2] = tested on: Mus musculus; experiment: Anti-inflammatory activity in MOG (35 to 55 residues)-induced experimental autoimmune encephalomyelitis mouse model assessed as reduction in brain IL-17 level at 15 mg/kg, INH; format: functional; parameters: scale not given: the % may be the effect or the level left
[3] = tested on: Mus musculus; experiment: Anti-inflammatory activity in MOG (35 to 55 residues)-induced experimental autoimmune encephalomyelitis mouse model assessed as reduction in spinal cord inflammation severity score at 15 mg/kg, INH by H&E staining based light microscopic analysis; format: functional, organism-based
[4] = tested on: Mus musculus; experiment: Anti-inflammatory activity in MOG (35 to 55 residues)-induced experimental autoimmune encephalomyelitis mouse model assessed as reduction in brain TNFalpha level at 15 mg/kg, INH; format: functional, organism-based
[5] = tested on: Mus musculus; experiment: Anti-inflammatory activity in MOG (35 to 55 residues)-induced experimental autoimmune encephalomyelitis mouse model assessed as reversal of clinical scores at 15 mg/kg, INH administered twice daily for 25 days; format: functional, organism-based; settings: time 25.0 day
[6] = tested on: Mus musculus; experiment: Anti-inflammatory activity in MOG (35 to 55 residues)-induced experimental autoimmune encephalomyelitis mouse model assessed as reduction in brain IFNgamma level at 15 mg/kg, INH; format: functional; parameters: scale not given: the % may be the effect or the level left
[7] = tested on: Mus musculus; experiment: Anti-inflammatory activity in MOG (35 to 55 residues)-induced experimental autoimmune encephalomyelitis mouse model assessed as reduction in spinal cord axonal neurodegeneration severity score at 15 mg/kg, INH by Bielschowsky silver staining based light microscopic analysis; format: functional, organism-based
[8] = tested on: Mus musculus; experiment: Anti-inflammatory activity in MOG (35 to 55 residues)-induced experimental autoimmune encephalomyelitis mouse model assessed as reduction in spinal cord demyelination severity score at 15 mg/kg, INH by Luxol fast blue staining based light microscopic analysis; format: functional, organism-based
[9] = organism: Mus musculus; experiment: Anti-inflammatory activity in MOG (35 to 55 residues)-induced experimental autoimmune encephalomyelitis mouse model assessed as reduction in spinal cord demyelination severity score by Luxol fast blue staining based light microscopic analysis; format: functional, organism-based
[10] = organism: Mus musculus; experiment: Anti-inflammatory activity in MOG (35 to 55 residues)-induced experimental autoimmune encephalomyelitis mouse model assessed as reduction in spinal cord axonal neurodegeneration severity score by Bielschowsky silver staining based light microscopic analysis; format: functional, organism-based
[11] = organism: Mus musculus; experiment: Anti-inflammatory activity in MOG (35 to 55 residues)-induced experimental autoimmune encephalomyelitis mouse model assessed as reduction in spinal cord inflammation severity score by H&E staining based light microscopic analysis; format: functional, organism-based
[12] = tested on: Mus musculus; experiment: Anti-inflammatory activity in MOG (35 to 55 residues)-induced experimental autoimmune encephalomyelitis mouse model assessed as reversal of clinical scores at 1 mg/kg, INH administered once daily for 25 days; format: functional, organism-based; settings: time 25.0 day
[13] = Oral bioavailability in Sprague-Dawley rat at 100 mg/kg; format: ADME, organism-based; settings: in vivo
[14] = Bioavailability in CF-1 mouse at 163.8 micromol/kg, IG measured upto 720 mins; format: ADME, organism-based; settings: in vivo, po, 163.8 µmol/kg

Compound | IC50 [1] [nM] | other results
O=C(O[C@@H]1Cc2ccccc2C[C@H]1c1cc(O)c(O)c(O)c1)c1cc(O)c(O)c(O)c1 (racemic) | 1050 | –
O=C(O[C@@H]1Cc2c(O)cc(O)cc2O[C@H]1c1cc(O)c(O)c(O)c1)c1cc(O)c(O)cc1C(F)(F)F | 432 | –
Cc1c([C@@H]2Oc3cc(O)cc(O)c3C[C@H]2OC(=O)c2cc(O)c(O)c(O)c2)cc(O)c(O)c1O | 296 | –
O=C(O[C@@H]1Cc2c(O)cccc2O[C@H]1c1cc(O)c(O)c(O)c1)c1cc(O)c(O)c(O)c1 (racemic) | 212 | –
O=C(O[C@@H]1Cc2c(O)cc(O)cc2O[C@H]1c1cc(O)c(O)c(O)c1)c1cc(O)c(O)cc1O | 172 | –
COc1cc(C(=O)O[C@@H]2Cc3c(O)cc(O)cc3O[C@@H]2c2cc(O)c(O)c(O)c2)cc(O)c1O | 429 | –
Cc1c(C(=O)O[C@@H]2Cc3c(O)cc(O)cc3O[C@H]2c2cc(O)c(O)c(O)c2)ccc(O)c1O | 553 | –
O=C(O[C@@H]1Cc2c(O)cc(O)cc2O[C@@H]1c1ccc(O)c(O)c1)c1cc(O)c(O)c(O)c1 [EPICATECHIN GALLATE] | 523 | –
COc1c(O)cc([C@@H]2Oc3cc(O)cc(O)c3C[C@H]2OC(=O)c2cc(O)c(O)c(O)c2)cc1O | 5800 | –
O=C(O[C@@H]1Cc2c(O)cc(O)cc2O[C@H]1c1ccc(O)c(O)c1)c1cc(O)c(O)c(O)c1 [(-)-CATECHINGALLATE] | 220 | –
O=C(O[C@@H]1Cc2c(O)cc(O)cc2O[C@H]1c1cc(O)c(O)c(O)c1)c1ccc(O)c(O)c1 | 236 | –
CCCCCCCCc1ccc(CCC(N)(CO)CO)cc1 | – | Activity [9]: Active; Activity [10]: Active; Activity [11]: Active; Activity [12]: Active
COc1c(O)cc(C(=O)O[C@@H]2Cc3c(O)cc(O)cc3O[C@H]2c2cc(O)c(O)c(O)c2)cc1O | 25100 | –
O=C(O[C@@H]1Cc2ccccc2O[C@H]1c1cc(O)c(O)c(O)c1)c1cc(O)c(O)c(O)c1 (racemic) | 422 | –
O=C(O[C@@H]1Cc2c(O)cc(O)cc2O[C@@H]1c1cc(O)c(O)c(O)c1)c1cc(O)c(O)c(O)c1 [EPIGALOCATECHIN GALLATE] | 232 | bioavailability [13]: ≤ 5%; bioavailability [14]: 12%

The remaining compounds from weak to strong by IC50 [1], led by results:

IC50 [1] [nM] | Compound | other results
153 | O=C(O[C@@H]1Cc2c(O)cc(O)cc2O[C@H]1c1cc(O)c(O)cc1F)c1cc(O)c(O)c(O)c1 | –
145 | O=C(O[C@@H]1Cc2c(O)cc(O)cc2O[C@H]1c1cc(O)c(O)c(O)c1)c1cc(O)c(O)c(F)c1 | –
115 | O=C(O[C@@H]1Cc2c(O)cc(O)cc2O[C@H]1c1cc(O)c(O)cc1F)c1cc(O)c(O)c(O)c1F | –
108 | O=C(O[C@@H]1Cc2c(O)cc(O)cc2O[C@H]1c1cc(O)c(O)c(O)c1)c1ccc(O)c(O)c1O | –
107 | O=C(O[C@@H]1Cc2c(O)cc(O)cc2O[C@H]1c1cc(O)c(O)c(O)c1)c1cc(O)c(O)cc1F | –
74 | O=C(O[C@@H]1Cc2c(O)cc(O)cc2O[C@H]1c1ccc(O)c(O)c1)c1cc(O)c(O)c(O)c1F (racemic) | –
60 | O=C(O[C@@H]1Cc2c(O)cc(O)cc2O[C@H]1c1cc(O)c(O)c(O)c1F)c1cc(O)c(O)c(O)c1 | –
54 | O=C(O[C@@H]1Cc2c(O)cc(O)cc2O[C@H]1c1cc(O)c(O)c(O)c1F)c1cc(O)c(O)c(O)c1F | –
35 | O=C(O[C@@H]1Cc2c(O)cc(O)cc2O[C@H]1c1cc(O)c(O)c(O)c1)c1cc(O)c(O)c(O)c1F | Activity [2]: 79%; Activity [3]: Active; Activity [4]: Active; Activity [5]: Active; Activity [6]: 90%; Activity [7]: Active; Activity [8]: Active
